The results in this text go back to patent US20080131920A1, “Ion flux in biological processes, and methods related thereto” (priority 2005, published 2008).

The test system of data set [1] is Xenopus tail regeneration. The following applies: compound in medium beginning immediately after tail amputation (stage 40-41).
For data set [2], the system named is Sonic hedgehog (Shh), Nodal. The data set is described as follows: Sidedness of Shh and Nodal expression in chick embryos (in ovo culture, in situ hybridization). The following applies: in vivo. The text has this:
We examined the effect of inhibiting H^+-V-ATPase activity on the expression of the early left-sided marker Sonic hedgehog (Shh). Inhibition of H^+-V-ATPase activity following treatment with concanamycin or DCCD specifically randomized the expression of Shh, as well as that of and the downstream marker Nodal. Compared to controls, in which these two markers are always left-sided, concanamycin induced aberrant sidedness of Shh expression in 67% and Nodal in 24% of embryos. Thus, as in Xenopus, H^+-V-ATPase is upstream of the known asymmetric gene cascade, and is required for normal LR patterning in chicks.
To perform a pharmacological screen on chick embryos with minimal disturbance to normal morphogenesis, we optimized a chicken in ovo culture system. A small hole was made on the top of each egg (prior to incubation), and 5 ml of light albumin was removed. […]. Eggs were securely wrapped with Scotch tape, incubated at 37.5° C. to the desired stages, then fixed for analysis of laterality markers by in situ hybridization.
Whole mount in situ hybridization (WISH) on Xenopus was performed according to standard methods. DNA used to transcribe in situ hybridization probes were XNr-1 (Lohr et al., 1998, Developmental Genetics 23: 194-202; Lowe et al., 1996, Nature 381: 158-161); cShh (Levin et al., 1995, Cell 82: 803-814); cNodal (Levin et al., 1995, Cell 82: 803-814).

Data set [3] relates to Xenopus embryos. It is filed as in vivo. The following applies: treated from fertilization to stage 7; organs scored at stage 45.
For data set [4], the system named is Dugesia japonica. As to the kind of experiment: Planarian regeneration, anterior-posterior phenotype (anteriorizing index) under GJC inhibition. It is filed as in vivo. The method, then:
Regenerating worms were contacted with the compound at an early stage of regeneration (2 days after cutting). 1-10 μM heptanol was dissolved in the medium. […] At 7 days post-cutting, we assayed the worms for the morphology of blastemas.
We next sought to ascertain whether the anteriorizing effect was dependent on the AP (anterior-posterior) level from which the fragment originated. Worms were amputated at four levels to make five body fragments: head, pre-pharyngeal, trunk (including the pharynx), post-pharyngeal and tail fragments.
The asexual clonal strain GI of the planarian, Dugesia japonica, was used in these study. In all experiments, the worms were starved for 1 week before use.
Intact worms 1-1.5 cm long were put into heptanol (or hexanol) solution (0.0045-0.006% vigorously vortexed into spring water) immediately prior to amputation to equilibrate the worms with the drug solution. The worms were amputated at four levels to generate the head, pre-pharyngeal, trunk (or “pharyngeal”), post-pharyngeal, and tail fragments. Worm fragments were incubated at 22° C. for 2 days. The heptanol solution was exchanged for fresh solution every day. The worms were then washed with water twice and incubated in worm water for 14-20 days to monitor the phenotypes.
We developed a quantitative scheme allowing comparison of degree of anteriorization among groups of worms. Each worm was scored on the following scale by observing the posterior blastema: 0 points—normal (a normal worm with a fully-patterned tail), 1 point—weak anteriorization of posterior blastema (missing tail or bipolar pharynx), 2 points—stronger anteriorization of posterior blastema (incomplete ectopic head with eye structures), or 3 points—complete anteriorization of posterior blastema (bipolar head, where the ectopic head has complete development with 2 normal eyes). For each group of worms, we calculated an average score that is the sum of all scores for the worms divided by the total number of worms. For convenience, the index was scaled from 0 to 100 (final index=average score*100/3). On this scale, a group of worms that were all normal would score 0, while a group of worms all of which were fully double-head would score 100. This scheme was focused on ascertaining the extent of anteriorization as judged by external morphology.

`O=C(O)c1c2ccccc2cc2ccccc12` [9-anthracene-carboxylic acid]: in data set [1], the “effect on rate or extent of tail regeneration” value (from here on “effect on rate or extent”) is reported as “no effect”.

For the compound `CC1(C)[C@@H](O)CC[C@]2(C)[C@H]3C(=O)C=C4[C@@H]5C[C@@](C)(C(=O)O)CC[C@]5(C)CC[C@@]4(C)[C@]3(C)CC[C@@H]12` [18-β-glycyrrhetinic acid], in data set [1], the “effect on rate or extent” value is reported as “no effect”.

`[Ba+2].[Cl-].[Cl-]` [BaCl]: the “effect on rate or extent” value in data set [1] is “absence of regeneration”.

Take `C(=NC1CCCCC1)=NC1CCCCC1` [DCCD]: the “expression of Shh and Nodal (sidedness)” value in data set [2] is on record as “randomized”.

In the case of `CCN(c1nc(N)c(C(=O)NC(=N)N)nc1Cl)C(C)C` [EIPA, Ethylisopropyl amiloride], in data set [1], the “effect on rate or extent” value is given as “no effect”.

`O=C1CCC(N2Cc3ccccc3C2=O)C(=O)N1` (centres unmarked) [EM12]: the “effect on rate or extent” value in data set [1] is “no effect”.

For `Cc1nc2c(OCc3ccccc3)cccn2c1CC#N` [SCH28080], in data set [1], the “effect on rate or extent” value was “no effect”.

On to `COc1ccc2c(c1OC)CN1CCc3cc4c(cc3C1C2)OCO4` (centres unmarked) [THB, Tetrahydroberberine], for which the “effect on rate or extent” value in data set [1] is given as “no effect”.

With `N=C(N)NC(=O)c1nc(Cl)c(N)nc1N` [amiloride], the “effect on rate or extent” value in data set [1] is given as “no effect”.

As to `CO/C1=C\C(C)=C\[C@@H](C)[C@@H](O)[C@@H](C)C/C(C)=C/C=C/[C@H](OC)[C@@H]([C@@H](C)[C@@H](O)[C@H](C)[C@@]2(O)C[C@@H](O)[C@H](C)[C@@H](C(C)C)O2)OC1=O` [bafilomycin], the “heterotaxia, % of the embryos” value in data set [3] worked out at 36%.

On to `CC1=NS(=O)(=O)c2cc(Cl)ccc2N1` [diazoxide], for which the “effect on rate or extent” value in data set [1] is listed as “no effect”.

Turning to `COc1ccc(Cl)cc1C(=O)NCCc1ccc(S(=O)(=O)NC(=O)NC2CCCCC2)cc1` [glibenclamide], the “effect on rate or extent” value in data set [1] is “no effect”.

With `CCCCCCCO` [heptanol], the “effect on rate or extent” value in data set [1] is “no effect”. The “toxicity to the worms” value in data set [4] (1-10 μM) is “not toxic”. In addition, the “trunk fragments with anteriorization of both blastemas” value in data set [4] (1-10 μM in the medium, scored 7 days post-cutting) worked out at 43%. The complete bipolar heads in data set [4] (1-10 μM, trunk fragments) came out at 16%.

Take `CCCCCCO` [hexanol]: in data set [4] (in vivo), the “strong anteriorization of the posterior blastema” value is “never induced strong anteriorization” and the tail regeneration result is “did inhibit tail regeneration”.

`C[C@@H]1O[C@@H](O[C@H]2C[C@@H](O)[C@]3(CO)[C@H]4[C@H](O)C[C@]5(C)[C@@H](C6=CC(=O)OC6)CC[C@]5(O)[C@@H]4CC[C@]3(O)C2)[C@H](O)[C@H](O)[C@H]1O` [ouabain]: the “effect on rate or extent” value in data set [1] was “no effect”.

As to `CCOC(=O)c1cccc(N)c1` [tricaine], the “effect on rate or extent” value in data set [1] is “absence of regeneration”.
